The test system of test [1] is TNF-R1. In words: TNF-R1 expression (immunofluorescence, flow cytometry) in human SK-N-SH cells. The test is classed as cell-based. Conditions: SK-N-SH cells after retinoic acid induction, 5 μM peptide, two days; fluorescence intensity relative to control = 1 (FIG. 2). The method, then: The activities of the two peptides synthesized in Example 1 above were tested with cultured cells of a human neuroblastoma cell line (SK-N-SH). The control group was supplied with no peptides. The test details are described below.
The SK-N-SH cell line was seeded in a 4 mL fraction in a culture dish of 6 cm diameter at a density of 1.5×10^5 cells/mL and incubated in a general DMEM culture medium (with 10% FBS, 2 mM L-glutamine, 50 unit/mL penicillin, and 50 μg/mL streptomycin) at 37° C. in a CO2 incubator at 5% CO2 over two nights. […]
After completion of the incubation, cultured cells in each test group were collected and divided into certain test tubes in fractions having the same number of number of cells. By the immunofluorescence technique described below, the expression (presence) of TNF-R1 and TNF-R2 was then assessed in each test group (group supplied with no peptide, group supplied with Sample 1, group supplied with Sample 2). […]
(§1) The fluorescence intensities of cells were measured with a flow cytometer (a Millipore system product, Guava® easyCyte 8HT). For both TNF-R2 and TNF-R1, the fluorescence intensities are shown as relative values with the fluorescence intensities of TNF-R2 and TNF-R1 in the control group (group supplied with no peptide) being 1, respectively.

The subject of test [2] is TNF-R1. In words: TNF-R1 expression (immunofluorescence, flow cytometry) in mouse Neuro 2a cells. It is filed as cell-based. Conditions: Neuro 2a cells after retinoic acid induction, 5 μM peptide, two days; fluorescence intensity relative to control = 1 (FIG. 1). On the procedure:
The activities of the two peptides synthesized in Example 1 above were tested with cultured cells of a mouse spinal cord, neuroblastoma cell line (Neuro 2a). The control group was supplied with no peptides. The test details are described below.
The Neuro 2a cell line was seeded in a culture dish of 6 cm diameter at a density of 8.5×10^4 cells/mL and incubated overnight in a general DMEM culture medium (with 10% FBS, 1% penicillin) at 37° C. in a CO2 incubator at 5% CO2.
After incubated overnight, the culture medium was replaced with a DMEM culture medium containing 2% FBS, 20 μM retinoic acid and 1% penicillin. […]
After completion of the incubation, cultured cells in each test group were collected and divided into certain test tubes in fractions having the same number of cells. By the immunofluorescence technique described below, the expression (presence) of TNF-R1 and TNF-R2 was then assessed in each test group (group supplied with no peptide, group supplied with Sample 1, group supplied with Sample 2). […]
as §1
On the technique in general: In flow cytometry, cells or beads pass a laser one at a time.

Consider two sequences from patent publication US9480727B2, “Synthetic peptide for inhibiting expression of type 2 TNF receptor and use thereof” (TOAGOSEI CO., LTD., priority 2012, dated 2016).

Turning to “MLPGLALLLLAAWTARA (listed as Homo sapiens) [Sample 1]”, the “presence (expression) of TNF-R1 as compared with the control group” value with TNF-R1 [1] and in the test with TNF-R1 [2] was “no significant change” in each case.

“MLPSLALLLLAAWTVRA (listed as Mus musculus) [Sample 2]”: the “presence (expression) of TNF-R1 as compared with the control group” value in the test on TNF-R1 [1] and in the test on TNF-R1 [2] was “no significant change” each time.
